Assay results taken from patent US9458092B2, “α-Substituted glycinamide derivative” (KISSEI PHARMACEUTICAL CO., LTD., priority 2013, dated 2016).

Test system: overactive bladder induced by acetic acid
Assay: Confirmation test of elongation action of micturition interval of overactive bladder induced by acetic acid
Type: in vivo, female SD rats
Conditions: Rattus norvegicus, iv; 1 mg/kg/2 ml via the femoral vein; interval before administration = 100%
Method: Urethane (sigma) was dissolved into pure water by 25% w/v, and female SD rats were anesthetized with 1.25 g/kg urethane by subcutaneous administration. Cannulae were placed in femoral vein and bladder, and the bladder cannula was connected to both a syringe pump and a pressure transducer. Detrusor overactivity was induced by intravesical infusion of 0.25% acetic acid in saline at a rate of 3.6 mL/h, and intravesical pressure was monitored via pressure transducer concurrently. Test compounds were dissolved into a mixture of dimethylacetamide and saline (20:80), and were administered via the femoral vein. When an average of the three micturition interval before administration was taken as 100%, an average of the three micturition interval after administration was calculated as Elongation of micturition interval (%) Dose and results are shown in tables 46 and 47.

Structure (SMILES) | response vs control in vivo at 1 mg/kg
NC(=O)[C@@H](c1ccccc1)N(C(=O)c1ccccc1)[C@@H]1CCc2ccc(Cl)cc21 [Example 2-2LP, N-[(R)-Carbamoylphenylmethyl]-N-[(R)-6-chloroindan-1-yl]benzamide] | 221%
COc1ccc2c(c1)[C@H](N(C(=O)c1ccccc1)[C@@H](C(N)=O)c1ccccc1)CC2 [Example 2-4LP, N-[(R)-Carbamoylphenylmethyl]-N-[(R)-6-methoxyindan-1-yl]benzamide] | 156%

Same assay, conditions: Rattus norvegicus, iv; 1 mg/kg/ml via the femoral vein; interval before administration = 100%

Structure (SMILES) | response vs control in vivo at 1 mg/kg
NC(=O)[C@@H](c1ccccc1)N(C(=O)c1cccnc1)[C@@H]1CCc2c(F)cc(F)cc21 [Example 1-1, N-[(R)-Carbamoylphenylmethyl]-N-[(R)-4,6-difluoroindan-1-yl]nicotinamide] | 209%
NC(=O)[C@@H](c1ccccc1)N(C(=O)c1cccnc1N)[C@@H]1CCc2c(F)cc(F)cc21 [Example 1-3, 2-Amino-N-[(R)-carbamoylphenylmethyl]-N-[(R)-4,6-difluoroindan-1-yl]nicotinamide] | 200%
NC(=O)[C@@H](c1cccnc1)N(C(=O)c1ccccc1O)[C@@H]1CCc2c(F)cc(Cl)cc21 [Example 19-1LP, N-[(R)-carbamoylpyridin-3-ylmethyl]-N-[(R)-6-chloro-4-fluoroindan-1-yl]-2-hydroxybenzamide] | 178%

Target: TRPM8 (Rattus norvegicus, UniProt Q8R455)
Sequence (Q8R455 whole entry): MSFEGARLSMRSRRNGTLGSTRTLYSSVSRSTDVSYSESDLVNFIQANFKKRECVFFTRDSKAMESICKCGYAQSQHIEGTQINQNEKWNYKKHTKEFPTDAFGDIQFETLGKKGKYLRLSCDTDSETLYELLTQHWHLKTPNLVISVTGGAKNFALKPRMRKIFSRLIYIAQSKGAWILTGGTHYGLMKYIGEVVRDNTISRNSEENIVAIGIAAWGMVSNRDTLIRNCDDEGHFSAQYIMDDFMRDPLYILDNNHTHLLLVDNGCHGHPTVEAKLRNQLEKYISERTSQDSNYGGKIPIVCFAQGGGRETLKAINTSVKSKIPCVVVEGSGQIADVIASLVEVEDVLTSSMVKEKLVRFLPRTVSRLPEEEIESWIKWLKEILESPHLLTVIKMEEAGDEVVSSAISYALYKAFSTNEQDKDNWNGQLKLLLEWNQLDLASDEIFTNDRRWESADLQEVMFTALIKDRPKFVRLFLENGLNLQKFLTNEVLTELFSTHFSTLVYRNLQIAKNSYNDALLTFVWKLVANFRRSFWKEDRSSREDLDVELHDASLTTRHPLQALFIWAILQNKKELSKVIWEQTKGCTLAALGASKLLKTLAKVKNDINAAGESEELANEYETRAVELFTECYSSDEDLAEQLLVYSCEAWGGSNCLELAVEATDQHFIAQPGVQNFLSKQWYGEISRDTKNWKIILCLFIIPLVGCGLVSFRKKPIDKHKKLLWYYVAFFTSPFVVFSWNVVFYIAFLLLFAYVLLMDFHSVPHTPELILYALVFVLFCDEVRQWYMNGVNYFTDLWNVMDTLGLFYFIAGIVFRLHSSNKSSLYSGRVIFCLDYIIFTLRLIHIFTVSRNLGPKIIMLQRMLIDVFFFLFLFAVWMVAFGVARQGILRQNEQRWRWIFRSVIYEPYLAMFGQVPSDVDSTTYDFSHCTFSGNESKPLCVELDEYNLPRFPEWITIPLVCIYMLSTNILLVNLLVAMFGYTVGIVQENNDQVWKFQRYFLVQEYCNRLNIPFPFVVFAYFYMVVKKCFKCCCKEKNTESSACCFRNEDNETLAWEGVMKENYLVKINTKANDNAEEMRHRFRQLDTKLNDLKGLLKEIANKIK
Assay: Confirmation test of inhibitory effects on icilin-induced wet-dog shakes
Type: in vivo, female SD rats
Design: test compounds were orally administered to female SD rats; from tissue; host or cells: whole animal (female SD rats), endogenous channel
Conditions: dose 3 mg/kg orally, icilin 1 mg/kg i.p. after 1 hour, shakes counted for 5 minutes
Method: Test compounds were dissolved in dimethylacetamide (wako), and 0.5% methylcellulose solution (wako) was added to make the solution or suspension containing 5% of dimethylacetamide. At a dose of 3 or 10 mg/kg/5 mL of test compounds were orally administered to female SD rats. After 1 hour, wet-dog shakes were induced by the intrapenitoneal injection of icilin (1 mg/kg) which was dissolved in polyethylene glycol 400 (wako). From 5 minutes after the administration of icilin, wet-dog shakes were counted for 5 minutes. For control example, vehicle (a mixture of dimethylacetamide (wako): 0.5% methylcellulose (wako)=5:95) was administrated similarly, and the number of wet-dog shakes was counted in the same manner. A percent inhibition of wet-dog shakes by test compound was calculated from the following formula: [1-(test compound wet-dog shake count/vehicle wet-dog shake count)]×100.

Structure (SMILES) | % inhibition of Wet-Dog Shake
NC(=O)[C@@H](c1ccccc1)N(C(=O)c1cccnc1N)[C@@H]1CCc2c(F)cc(F)cc21 [Example 1-3, 2-Amino-N-[(R)-carbamoylphenylmethyl]-N-[(R)-4,6-difluoroindan-1-yl]nicotinamide] | 69%
Cc1nccnc1C(=O)N([C@@H]1CCc2c(F)cc(Cl)cc21)[C@@H](C(N)=O)c1ccccc1 [Example 2-175LP, N-[(R)-carbamoylphenylmethyl]-N-[(R)-6-chloro-4-fluoroindan-1-yl]-3-methylpyrazine-2-carboxamide] | 40%
NC(=O)[C@@H](c1ccccc1)N(C(=O)c1cnccn1)[C@@H]1CCc2c(F)cc(Cl)cc21 [Example 2-179LP, N-[(R)-carbamoylphenylmethyl]-N-[(R)-6-chloro-4-fluoroindan-1-yl]pyrazine-2-carboxamide] | 32%
COc1ncccc1C(=O)N([C@@H]1CCc2c(F)cc(Cl)cc21)[C@@H](C(N)=O)c1cccnc1 [Example 2-180LP, N-[(R)-carbamoylpyridin-3-ylmethyl]-N-[(R)-6-chloro-4-fluoroindan-1-yl]-2-methoxynicotinamide] | 32%
NC(=O)[C@@H](c1cccnc1)N(C(=O)c1ccccc1O)[C@@H]1CCc2c(F)cc(Cl)cc21 [Example 4-5, N-[(R)-carbamoylpyridin-3-ylmethyl]-N-[(R)-6-chloro-4-fluoroindan-1-yl]-2-hydroxybenzamide] | 76%
NC(=O)[C@@H](c1cnccn1)N(C(=O)c1ccccc1O)[C@@H]1CCc2c(F)cc(Cl)cc21 [Example 4-8, N-[(R)-carbamoylpyrazin-2-ylmethyl]-N-[(R)-6-chloro-4-fluoroindan-1-yl]-2-hydroxybenzamide] | 37%
Cc1cccc(C(=O)N([C@@H]2CCc3c(F)cc(Cl)cc32)[C@@H](C(N)=O)c2ccccc2)c1O [Example 4-9, N-[(R)-carbamoylphenylmethyl]-N-[(R)-6-chloro-4-fluoroindan-1-yl]-2-hydroxy-3-methylbenzamide] | 36%
NC(=O)[C@@H](c1cncc(F)c1)N(C(=O)c1ccccc1O)[C@@H]1CCc2c(F)cc(Cl)cc21 [Example 19-31LP, N-[(R)-Carbamoyl(5-fluoropyridin-3-yl)methyl]-N-[(R)-6-chloro-4-fluoroindan-1-yl]-2-hydroxybenzamide] | 71%

Same assay, conditions: dose 10 mg/kg orally, icilin 1 mg/kg i.p. after 1 hour, shakes counted for 5 minutes

Structure (SMILES) | % inhibition of Wet-Dog Shake
NC(=O)[C@@H](c1ccccc1)N(C(=O)c1cccnc1)[C@@H]1CCc2c(F)cc(F)cc21 [Example 1-1, N-[(R)-Carbamoylphenylmethyl]-N-[(R)-4,6-difluoroindan-1-yl]nicotinamide] | 95%
NC(=O)[C@@H](c1ccccc1)N(C(=O)c1ccccc1)[C@@H]1CCc2ccc(Cl)cc21 [Example 2-2LP, N-[(R)-Carbamoylphenylmethyl]-N-[(R)-6-chloroindan-1-yl]benzamide] | 100%
COc1ccc2c(c1)[C@H](N(C(=O)c1ccccc1)[C@@H](C(N)=O)c1ccccc1)CC2 [Example 2-4LP, N-[(R)-Carbamoylphenylmethyl]-N-[(R)-6-methoxyindan-1-yl]benzamide] | 79%
N#Cc1ccc2c(c1)[C@H](N(C(=O)c1ccccc1O)[C@@H](C(N)=O)c1ccccc1)CC2 [Example 3-2, N-[(R)-carbamoylphenylmethyl]-N-[(R)-6-cyanoindan-1-yl]-2-hydroxybenzamide] | 73%
NC(=O)[C@@H](c1ccccc1)N(C(=O)c1ccccc1O)[C@@H]1COc2ccc(Cl)cc21 [Example 4-2, N-[(R)-carbamoylphenylmethyl]-N-[(S)-5-chloro-2,3-dihydrobenzofuran-3-yl]-2-hydroxybenzamide] | 86%
Cc1ncccc1C(=O)N([C@@H]1CCc2c(F)cc(Cl)cc21)[C@@H](C(N)=O)c1cccc(N(C)C)c1 [Example 18-13LP, N-[(R)-carbamoyl-(3-dimethylaminophenyl)methyl]-N-[(R)-6-chloro-4-fluoroindan-1-yl]-2-methylnicotinamide] | 86%
CN(C)c1cccc([C@H](C(N)=O)N(C(=O)c2ccccc2O)[C@@H]2CCc3c(F)cc(Cl)cc32)c1 [Example 19-6LP, N-[(R)-carbamoyl-(3-dimethylaminophenyl)methyl]-N-[(R)-6-chloro-4-fluoroindan-1-yl]-2-hydroxybenzamide] | 99%
Cc1ccc(C(=O)N([C@@H]2CCc3c(F)cc(Cl)cc32)[C@@H](C(N)=O)c2cccnc2)c(O)c1 [Example 19-12LP, N-[(R)-carbamoylpyridin-3-ylmethyl]-N-[(R)-6-chloro-4-fluoroindan-1-yl]-2-hydroxy-4-methylbenzamide] | 82%
NC(=O)[C@@H](c1cccnc1)N(C(=O)c1c(O)cccc1F)[C@@H]1CCc2c(F)cc(Cl)cc21 [Example 19-15LP, N-[(R)-carbamoylpyridin-3-ylmethyl]-N-[(R)-6-chloro-4-fluoroindan-1-yl]-2-fluoro-6-hydroxybenzamide] | 72%
NC(=O)[C@@H](c1cccnc1)N(C(=O)c1ccc(F)cc1O)[C@@H]1CCc2c(F)cc(Cl)cc21 [Example 19-16LP, N-[(R)-carbamoylpyridin-3-ylmethyl]-N-[(R)-6-chloro-4-fluoroindan-1-yl]-4-fluoro-2-hydroxybenzamide] | 63%
NC(=O)[C@@H](c1cccnc1)N(C(=O)c1ccc(Cl)cc1O)[C@@H]1CCc2c(F)cc(Cl)cc21 [Example 19-17LP, N-[(R)-carbamoylpyridin-3-ylmethyl]-4-chloro-N-[(R)-6-chloro-4-fluoroindan-1-yl]-2-hydroxybenzamide] | 66%
NC(=O)[C@@H](c1cccnc1)N(C(=O)c1cccc(F)c1O)[C@@H]1CCc2c(F)cc(Cl)cc21 [Example 19-25LP, N-[(R)-carbamoylpyridin-3-ylmethyl]-N-[(R)-6-chloro-4-fluoroindan-1-yl]-3-fluoro-2-hydroxybenzamide] | 86%
Cc1cccc(C(=O)N([C@@H]2CCc3c(F)cc(Cl)cc32)[C@@H](C(N)=O)c2cccnc2)c1O [Example 19-41LP, N-[(R)-Carbamoylpyridin-3-ylmethyl]-N-[(R)-6-chloro-4-fluoroindan-1-yl]-2-hydroxy-3-methylbenzamide] | 92%
Cc1ncccc1C(=O)N([C@@H]1CCc2c(F)cc(Cl)cc21)[C@@H](C(N)=O)c1cccc(N)c1 [Example 21-1, N-[(R)-(3-Aminophenyl)carbamoylmethyl]-N-[(R)-6-chloro-4-fluoroindan-1-yl]-2-methylnicotinamide] | 99%
NC(=O)[C@@H](c1cccc(N)c1)N(C(=O)c1ccccc1O)[C@@H]1CCc2c(F)cc(Cl)cc21 [Example 21-2, N-[(R)-(3-Aminophenyl)carbamoylmethyl]-N-[(R)-6-chloro-4-fluoroindan-1-yl]-2-hydroxybenzamide] | 94%
